{"source": "patent US11590167B2", "about": "“Methods and compositions for use of therapeutic T cells in combination with kinase inhibitors” (Juno Therapeutics, Inc., priority 2016, dated 2023)", "key": {"[1]": {"system": "EGFRt+ CAR T cells and/or tumor cells", "experiment": "CAR+ T cell and tumor cell counts in blood and bone marrow of Nalm-6 bearing mice", "format": "in vivo, NSG mice", "procedure": "NSG mice described in Example 2 were intravenously injected on day 0 with 5×10^5 Nalm-6 cells expressing firefly luciferase. […] A bridging experiment confirmed that administration of ibrutinib by drinking water was equivalent to oral gavage administration (data not shown). To permit assessment of the effect of a combination therapy with the inhibitor, a suboptimal dose of anti-CD19 CAR T cells was i.v. injected into the mice at 5×10^5/mouse at day 5. As a control, mice were administered the vehicle control without administration of the CAR-T cells or inhibitor."}, "anti-CD19 CAR T cells [2]": {"system": "anti-CD19 CAR T cells", "experiment": "TH1 phenotype of anti-CD19 CAR T cells in serial restimulation assay (flow cytometry)", "format": "cell-based, human", "conditions": "18-day serial stimulation, three donors; 500 nM ibrutinib (P<0.01); compound of Formula (II) treatment", "procedure": "A serial restimulation assay was performed as described above and cells were harvested at various times and analyzed by flow cytometry to assess percentage of TH1-phenotype (assessed as CD4+CXCR3+CRTH2-) T cells or TH2-phenotype (assessed as CD4+CXCR3-CRTH2+)."}, "RLK/TXK": {"target": "T1, RLK/TXK (Homo sapiens, UniProt P42681)", "T1 sequence (P42681 1-527)": "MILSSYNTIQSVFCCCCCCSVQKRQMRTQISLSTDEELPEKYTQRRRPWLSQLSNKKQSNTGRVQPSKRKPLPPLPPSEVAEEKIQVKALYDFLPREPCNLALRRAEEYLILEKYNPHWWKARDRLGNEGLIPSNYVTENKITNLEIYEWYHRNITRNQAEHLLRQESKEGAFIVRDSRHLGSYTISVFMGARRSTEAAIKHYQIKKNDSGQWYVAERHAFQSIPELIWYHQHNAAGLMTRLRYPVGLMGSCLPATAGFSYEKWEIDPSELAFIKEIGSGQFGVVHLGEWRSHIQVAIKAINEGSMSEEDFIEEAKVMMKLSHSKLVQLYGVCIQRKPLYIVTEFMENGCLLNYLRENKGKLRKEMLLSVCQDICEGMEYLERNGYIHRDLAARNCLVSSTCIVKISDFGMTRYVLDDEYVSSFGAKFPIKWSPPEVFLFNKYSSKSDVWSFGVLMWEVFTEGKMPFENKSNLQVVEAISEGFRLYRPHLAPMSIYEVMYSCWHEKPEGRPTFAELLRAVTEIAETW", "conditions": "literature value given as embodiment; read-out: IC50 value, inhibitory activity against RLK/TXK; cited from earlier work"}, "[3]": {"conditions": "observed Cmax quoted for dosage range; cited from earlier work"}, "anti-CD19 CAR T cells [4]": {"system": "anti-CD19 CAR T cells", "experiment": "Cytolytic activity of anti-CD19 CAR T cells co-cultured with K562-CD19 target cells (IncuCyte)", "format": "cell-based, human", "conditions": "E:T 2.5:1, four days, three healthy donors; ibrutinib 0.5-5000 nM; compound of Formula (II) 50 to 5000 nM", "source_text": "(§1) To generate CAR-expressing T cells, T cells were isolated by immunoaffinity-based enrichment from three healthy human donor subjects, and cells from each donor were activated and transduced with a viral vector encoding an anti-CD19 CAR. The CAR contained an anti-CD19 scFv, an Ig-derived spacer, a human CD28-derived transmembrane domain, a human 4-1BB-derived intracellular signaling domain and a human CD3 zeta-derived signaling domain. The nucleic acid construct encoding the CAR also included a truncated EGFR (tEGFR) sequence for use as a transduction marker, separated from the CAR sequence by a self-cleaving T2A sequence.\n(§2) CAR-expressing CD4+ and CD8+ cells were mixed 1:1 for each donor, individually, and the pooled cells for each donor assessed in vitro under various conditions.\nCAR T cells generated as described above were plated in triplicate on Poly-D-Lysine plates and then co-cultured with ibrutinib-resistant, CD19-expressing target cells (K562 cells transduced to express CD19, K562-CD19) at an effector to target (E:T) ratio of 2.5:1. The targets cells were labeled with NucLight Red (NLR) to permit tracking of target cells by microscopy. […] Cytolytic activity was assessed by measuring the loss of viable target cells over a period of four days, as determined by red fluorescent signal (using the IncuCyte® Live Cell Analysis System, Essen Bioscience)."}, "CAR T cells": {"system": "CAR T cells", "experiment": "Activation and memory markers of CAR T cells from the serial stimulation assay (flow cytometry)", "format": "cell-based, human", "conditions": "days 0, 11, 18 and 21 of serial stimulation"}, "Itk": {"target": "T2, Itk (Homo sapiens, UniProt Q08881)", "T2 sequence (Q08881 1-620)": "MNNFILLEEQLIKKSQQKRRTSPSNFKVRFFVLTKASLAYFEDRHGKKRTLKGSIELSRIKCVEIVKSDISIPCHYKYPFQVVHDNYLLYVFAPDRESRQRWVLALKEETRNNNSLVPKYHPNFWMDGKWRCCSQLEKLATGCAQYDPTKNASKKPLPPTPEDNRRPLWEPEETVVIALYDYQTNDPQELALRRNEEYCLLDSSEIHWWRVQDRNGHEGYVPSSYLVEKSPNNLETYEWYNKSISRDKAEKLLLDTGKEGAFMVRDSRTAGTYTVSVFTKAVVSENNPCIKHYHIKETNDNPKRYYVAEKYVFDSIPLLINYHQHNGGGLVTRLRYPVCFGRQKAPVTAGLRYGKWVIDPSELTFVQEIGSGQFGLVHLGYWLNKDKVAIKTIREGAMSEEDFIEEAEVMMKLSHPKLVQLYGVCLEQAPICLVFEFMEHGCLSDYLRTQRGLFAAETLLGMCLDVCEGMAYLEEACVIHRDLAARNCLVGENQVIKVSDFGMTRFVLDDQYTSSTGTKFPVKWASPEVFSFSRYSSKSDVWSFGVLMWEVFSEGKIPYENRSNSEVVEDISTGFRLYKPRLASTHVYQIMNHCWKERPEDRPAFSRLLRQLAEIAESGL", "conditions": "reported, Byrd et al. 2016; cited from earlier work"}, "anti-CD19 CAR T cells [5]": {"system": "anti-CD19 CAR T cells", "experiment": "Cytokine production by anti-CD19 CAR T cells co-cultured with irradiated K562-CD19 (MSD)", "format": "cell-based, human", "procedure": "CAR-T cells generated as described above were plated at 100,000 cells/well on 96 well Poly-D-Lysine coated plates. Irradiated target cells (K562-CD19) were added at an effector to target ratio of 2.5:1. […] Culture supernatants were harvested at day 2, 3 or 4, and IFNγ, IL-2 and TNFa were measured from the culture supernatants using cytokine kits from Meso Scale Discovery (MSD)."}, "anti-CD19 CAR T cells [6]": {"system": "anti-CD19 CAR T cells", "experiment": "Expression of CAR-T cell surface markers over 4 days after stimulation with irradiated K562-CD19 (flow cytometry)", "format": "cell-based, human", "conditions": "four days after initial stimulation", "source_text": "as §1, §2\nCAR-T cells generated as described above were plated at 100,000 cells/well on 96 well Poly-D-Lysine coated plates. Irradiated K562-CD19 target cells were added at an effector to target ratio of 2.5:1."}}}
{"molecule": "CC#CC(=O)N1CCC[C@H]1c1nc(-c2ccc(C(=O)Nc3ccccn3)cc2)c2c(N)nccn12", "note": "[compound of Formula (II)]", "values": [{"measurement": "tumor cells in the blood or bone marrow compared to CAR+ cells with vehicle alone", "setting": "[1]; CAR+ cell treatment combined with inhibitor", "result": "significantly fewer tumor cells were detected"}, {"measurement": "circulating CAR+ T cells compared to CAR+ T cells and vehicle", "setting": "[1]; blood, days 7, 12, 19 and 26 post CAR+ T cell transfer, drinking water 25 mg/kg/day", "result": "significant increase in circulating CAR+ T cells"}, {"measurement": "number of cells in the blood", "setting": "[1]; day 19 post CAR-T cell transfer, ibrutinib p<0.05, Formula (II) p<0.001", "result": "significant increase in the number of cells in the blood"}, {"measurement": "percentage of TH1 cells", "setting": "anti-CD19 CAR T cells [2]", "result": "no significant effects were observed"}, {"measurement": "IC50", "setting": "RLK/TXK", "result": "~368", "unit": "nM"}, {"measurement": "Cmax", "setting": "[3]", "result": 1800, "unit": "nM"}, {"measurement": "cytolytic function of anti-CD19 CAR T cells against K562-CD19 target cells, normalized to untreated control", "setting": "anti-CD19 CAR T cells [4]", "result": "no negative impact on cytolytic function"}, {"measurement": "additional CAR T activation or memory markers (CD25, CD38, CD39, CD45RO, CD62L, CD69, CD107a, PD-1)", "setting": "CAR T cells", "result": "No significant effects"}, {"measurement": "lower affinity for ITK compared with ibrutinib", "setting": "Itk", "result": "> 200", "unit": "times"}, {"measurement": "CAR T cytokine production (IFNγ, IL-2, TNFα) following stimulation with K562.CD19 cells", "setting": "anti-CD19 CAR T cells [5]; overall, three donors, culture supernatants, ibrutinib 0.5-500 nM, Formula (II) 50-5000 nM", "result": "did not inhibit CAR T cytokine production"}, {"measurement": "cytokine production", "setting": "anti-CD19 CAR T cells [5]; some donors, compound of Formula (II)", "result": "modestly increased cytokine production in some donors"}, {"measurement": "phenotype of cells as central (TCM) or effector (TEM) memory subsets by CCR7 and CD45RA", "setting": "anti-CD19 CAR T cells [6]", "result": "did not affect the phenotype of cells as central (TCM) or effector (TEM) memory subsets"}]}
